Source: patent US12419905B2, “Methods and compositions for the treatment of amyloid-related disorders” (YALE UNIVERSITY, priority 2018, dated 2025)

Assays:
[1] = tested on: Aßo/PrP^C interaction in stably PrP^C-transfected CV1 cells; format: cell-based, rat
[2] = tested on: APP/PS1 transgenic Alzheimer's model mice; assay: Morris water maze in APP/PS1 mice; format: in vivo, mouse; settings: fresh ceftazidime (as Fortaz) 100 mg/kg IP BID
Description: For Morris water maze, mice were randomly assigned to treatment groups and the experimenter was unaware of both genotype and treatment group. Groups were balanced for age, sex, and weight. Mice used were 12-14 months of age at experiment initiation. During treatment, the experimenter was blinded to genotype. For drug treated mice, Poly(4-styrenesulfonic acid co-maleic acid) was administered by twice daily oral gavage of 5.0 mg and 15.0 mg Poly(4-styrenesulfonic acid co-maleic acid) per kg body weight in a vehicle of 0.5% w/v hydroxypropyl methylcellulose and 0.1% w/v polysorbate 80 to APP/PS1 and WT mice, respectively. Vehicle treated animals were gavaged twice daily with vehicle. 500 mg ceftazidime as Fortaz was dissolved per manufacturer's instructions in 1.5 ml sterile milliQ H2O to obtain 333 mg/ml in sodium carbonate solution. Animals treated peripherally with fresh ceftazidime were injected directly after dissolution intraperitoneally with 100 mg ceftazidime per kg body weight in a vehicle of PBS. Animals treated centrally with aged ceftazidime were fitted with an intracerebroventricular cannula (Alzet brain infusion kit 0008663) and subcutaneous osmotic minipump (Alzet model 1004) loaded with aged ceftazidime diluted in PBS. All animals were treated for 4 weeks prior to the Morris water maze and throughout assessment. […]

| SMILES | Aßo/PrP^C interaction-inhibiting activity, aged drug [1] | Aßo/PrP^C interaction-inhibiting activity, fresh drug [1] | MWM latency to hidden platform, effect of treatment [2] |
| --- | --- | --- | --- |
| CO/N=C(\C(=O)N[C@@H]1C(=O)N2C(C(=O)O)=C(COC(C)=O)CS[C@H]12)c1csc(N)n1 [cefotaxime] | zero activity | zero activity | – |
| CC(C)(O/N=C(\C(=O)N[C@@H]1C(=O)N2C(C(=O)[O-])=C(C[n+]3ccccc3)CS[C@H]12)c1csc(N)n1)C(=O)O [ceftazidime] | exhibited activity | – | no detectable effect |
| CO/N=C(\C(=O)N[C@@H]1C(=O)N2C(C(=O)O)=C(CSc3nc(=O)c(=O)[nH]n3C)CS[C@H]12)c1csc(N)n1 [ceftriaxone] | zero activity | zero activity | – |
